Laboratory results from US20070173462A1, “Treatment of diseases associated with the use of antibiotics” (Optimer Pharmaceuticals, Inc., priority 2004, published 2007).
Values after ≈ are worked out from the molar mass of the structure shown.

Experiments:
[1] = test system: C. paraputrificum; assay: microbe, parasite or virus in culture; format: cell-based; details: clinical isolates, n=10
[2] = test system: C. difficile; assay: microbe, parasite or virus in culture; format: cell-based; details: clinical isolates, n=23
[3] = test system: Anaerobic Gram positive cocci; assay: organism not typed; format: cell-based; details: clinical gastrointestinal isolates, n=49
[4] = test system: C. ramosum; assay: microbe, parasite or virus in culture; format: cell-based; details: clinical isolates, n=10
[5] = test system: Pseudomonas aeruginosa; assay: microbe, parasite or virus in culture; format: cell-based; details: clinical gastrointestinal isolates, n=10
[6] = test system: Non-spore forming Gram positive rods; assay: organism not typed; format: cell-based; details: clinical gastrointestinal isolates, n=64
[7] = test system: Other anaerobic Gram negative rods; assay: organism not typed; format: cell-based; details: clinical gastrointestinal isolates, n=51
[8] = test system: Bacteroides fragilis group; assay: microbe, parasite or virus in culture; format: cell-based; details: clinical gastrointestinal isolates, n=54
[9] = test system: C. glycolicum; assay: microbe, parasite or virus in culture; format: cell-based; details: clinical isolates, n=9
[10] = test system: Clostridium difficile; assay: MIC, 207 clinical isolates of C. difficile; format: cell-based; details: clinical isolates, n=207
From the text: Compound I was additionally tested against anaerobic clinical isolates and against aerobic bacteria. […] The compound was also active against clinical strains of Staphylococcus sp. and Enterococcus sp.

[11] = test system: Proteus mirabilis; assay: microbe, parasite or virus in culture; format: cell-based; details: clinical gastrointestinal isolates, n=10
[12] = test system: C. perfringens; assay: microbe, parasite or virus in culture; format: cell-based
[13] = test system: Other Clostridium sp.; assay: microbe, parasite or virus in culture; format: cell-based; details: clinical isolates, n=11
[14] = test system: C. innocuum; assay: microbe, parasite or virus in culture; format: cell-based; details: clinical isolates, n=9
[15] = test system: Streptococcus milleri group; assay: microbe, parasite or virus in culture; format: cell-based; details: clinical gastrointestinal isolates, n=14
[16] = test system: C. sordellii; assay: microbe, parasite or virus in culture; format: cell-based; details: clinical isolates, n=5
[17] = test system: Enterobacter sp.; assay: microbe, parasite or virus in culture; format: cell-based; details: Enterobacter; clinical gastrointestinal isolates, n=20
[18] = test system: C. clostridioforme; assay: organism not typed; format: cell-based; details: clinical isolates, n=5
[19] = test system: Eschericia coli; assay: organism not typed; format: cell-based; details: clinical gastrointestinal isolates, n=10
[20] = test system: Streptococcus sp.; assay: microbe, parasite or virus in culture; format: cell-based; details: clinical gastrointestinal isolates, n=9
[21] = test system: C. bolteae; assay: microbe, parasite or virus in culture; format: cell-based; details: clinical isolates, n=6
[22] = test system: toxigenic C. difficile; assay: Hamster model of clindamycin-induced Clostridium difficile associated diarrhea/colitis; format: in vivo, Syrian hamsters; details: oral treatment for 7 days; untreated infection uniformly fatal between days two and six
Method: Animals were treated with two oral doses of clindamycin at 100 mg/kg. Three days after the second dose of clindamycin, they were inoculated with toxigenic C. difficile spores. […] Animals were observed daily for the presence or absence of diarrhea. Necropsies were performed on some animals that died during the experiment, and cecal contents were assayed for C. difficile toxin A. Hamsters were monitored for 20 days, and the cumulative mortality during this period was recorded (FIG. 1).

[23] = test system: Stephylococcus sp.; assay: organism not typed; format: cell-based; details: clinical gastrointestinal isolates, n=19
[24] = test system: Klebsiella sp.; assay: microbe, parasite or virus in culture; format: cell-based; details: clinical gastrointestinal isolates, n=10
[25] = test system: Veillonella sp.; assay: microbe, parasite or virus in culture; format: cell-based; details: Veillonella; clinical gastrointestinal isolates, n=10
[26] = test system: Enterococcus sp.; assay: microbe, parasite or virus in culture; format: cell-based; details: clinical gastrointestinal isolates, n=22

CN[C@H](CC(C)C)C(=O)N[C@H]1C(=O)N[C@@H](CC(N)=O)C(=O)N[C@H]2C(=O)N[C@H]3C(=O)N[C@H](C(=O)N[C@H](C(=O)O)c4cc(O)cc(O)c4-c4cc3ccc4O)[C@H](O)c3ccc(c(Cl)c3)Oc3cc2cc(c3O[C@@H]2O[C@H](CO)[C@@H](O)[C@H](O)[C@H]2O[C@H]2C[C@](C)(N)[C@H](O)[C@H](C)O2)Oc2ccc(cc2Cl)[C@H]1O [Vancomycin]
MIC50 ([1]; Clostridium paraputrificum): 2 µg/mL (≈ 1.38 µM) | MIC90 ([1]; Clostridium paraputrificum): 2 µg/mL (≈ 1.38 µM) | Range (MIC) [1]: 1 to 2 µg/mL | MIC50 ([2]; Clostridioides difficile): 1 µg/mL (≈ 0.69 µM) | MIC90 ([2]; Clostridioides difficile): 2 µg/mL (≈ 1.38 µM) | Range (MIC) [2]: 0.5-4^ μg/mL | MIC50 [3]: 1 µg/mL (≈ 0.69 µM) | MIC90 [3]: 8 µg/mL (≈ 5.52 µM) | MIC50 ([4]; Thomasclavelia ramosa): 4 µg/mL (≈ 2.76 µM) | MIC90 ([4]; Thomasclavelia ramosa): 8 µg/mL (≈ 5.52 µM) | Range (MIC) [4]: 4 to 8 µg/mL | MIC50 [5]: > 1020 µg/mL | MIC90 [5]: > 1020 µg/mL | MIC50 [6]: 128 µg/mL (≈ 88.3 µM) | MIC90 [6]: > 1020 µg/mL | MIC50 [7]: 512 µg/mL (≈ 353 µM) | MIC90 [7]: > 1020 µg/mL | MIC50 ([8]; Bacteroides fragilis): 64 µg/mL (≈ 44.2 µM) | MIC90 ([8]; Bacteroides fragilis): 128 µg/mL (≈ 88.3 µM) | Range (MIC) [8]: 16 to 256 µg/mL | MIC50 ([9]; Terrisporobacter glycolicus): 1 µg/mL (≈ 0.69 µM) | MIC90 ([9]; Terrisporobacter glycolicus): 1 µg/mL (≈ 0.69 µM) | Range (MIC) [9]: 0.5-1^ μg/mL | MIC90 ([10]; Clostridioides difficile): 0.5 µg/mL (≈ 0.345 µM) | MIC50 ([10]; Clostridioides difficile, read-out: MIC50): 0.5 µg/mL (≈ 0.345 µM) | Range (MIC) [10]: 0.0156-0.5 | MIC50 ([11]; Proteus mirabilis): > 1020 µg/mL | MIC90 ([11]; Proteus mirabilis): > 1020 µg/mL | Range (MIC) [11]: >1024 µg/mL | Range (MIC) [12]: 0.5-1^ μg/mL | MIC50 ([12]; Clostridium perfringens): 1 µg/mL (≈ 0.69 µM) | MIC90 ([12]; Clostridium perfringens): 1 µg/mL (≈ 0.69 µM) | MIC50 ([13]; Clostridium): 1 µg/mL (≈ 0.69 µM) | MIC90 ([13]; Clostridium): 16 µg/mL (≈ 11 µM) | Range (MIC) [13]: 1 to 64 µg/mL | MIC50 ([14]; [Clostridium] innocuum): 16 µg/mL (≈ 11 µM) | MIC90 ([14]; [Clostridium] innocuum): 16 µg/mL (≈ 11 µM) | Range (MIC) [14]: 8 to 16 µg/mL | MIC50 ([15]; Streptococcus milleri): 1 µg/mL (≈ 0.69 µM) | MIC90 ([15]; Streptococcus milleri): 1 µg/mL (≈ 0.69 µM) | Range (MIC) [15]: 1 µg/mL | MIC50 ([16]; Paraclostridium sordellii): 1 µg/mL (≈ 0.69 µM) | MIC90 ([16]; Paraclostridium sordellii): 1 µg/mL (≈ 0.69 µM) | Range (MIC) [16]: 1 µg/mL | MIC50 [17]: > 1020 µg/mL | MIC90 [17]: > 1020 µg/mL | MIC50 [18]: 1 µg/mL (≈ 0.69 µM) | MIC90 [18]: 8 µg/mL (≈ 5.52 µM) | Range (MIC) [18]: 1 to 8 µg/mL | MIC50 [19]: 512 µg/mL (≈ 353 µM) | MIC90 [19]: > 1020 µg/mL | MIC50 ([20]; Streptococcus): 0.5 µg/mL (≈ 0.345 µM) | MIC90 ([20]; Streptococcus): 1 µg/mL (≈ 0.69 µM) | Range (MIC) [20]: 0.5 to 1 µg/mL | MIC50 ([21]; Enterocloster bolteae): 16 µg/mL (≈ 11 µM) | MIC90 ([21]; Enterocloster bolteae): 16 µg/mL (≈ 11 µM) | Range (MIC) [21]: 1 to 16 µg/mL | protection from infection (cumulative mortality over 20 days) [22]: protected the animals from infection | MIC50 [23]: 2 µg/mL (≈ 1.38 µM) | MIC90 [23]: 4 µg/mL (≈ 2.76 µM) | Range (MIC) [23]: 1 to 4 µg/mL | MIC50 ([24]; Klebsiella): > 1020 µg/mL | MIC90 ([24]; Klebsiella): > 1020 µg/mL | Range (MIC) [24]: >1024 µg/mL | MIC50 [25]: 512 µg/mL (≈ 353 µM) | MIC90 [25]: 512 µg/mL (≈ 353 µM) | MIC50 ([26]; Enterococcus): 1 µg/mL (≈ 0.69 µM) | MIC90 ([26]; Enterococcus): 4 µg/mL (≈ 2.76 µM) | Range (MIC) [26]: 0.5-4 ^ μg/mL
